Results: patent publication US20200261534A1, “NEW TREATMENTS OF MULTIPLE MYELOMA” (priority 2017, published 2020)
Where two headings read alike, the source gives them in different places. Starred links: 1 amine or outer side, 2 acyl side, 3 side chain; linkers in the order of their positions; H or OH if unused. Positions of bridges follow the written chain, without caps; N, C: chain ends. Non-standard residues stand in square brackets, D forms with d. Residues, ends and D or L forms follow the SMILES beside them. No end group written: not given here. ξ: configuration not given here. Biphenyl(4,4'-CH2)2 = c1cc(-c2ccc(C[*:2])cc2)ccc1C[*:1]; ξαMeNle(6-ylidene) = CC(CCCC=[*:3])(N[*:1])C(=O)[*:2]; X1 = CC(CCCCCCC=[*:3])(N[*:1])C(=O)[*:2]; Octanediyl(1,8) = C(CCCC[*:2])CCC[*:1]; ξC = NC(CS)C(=O)O

How the values were obtained:
Format in all cases: cell-based
[1] = test system: HL-60, promyeloblast (acute myelocytic leukemia, AML); assay: MTT viability assay, HL-60
Protocol: (§1) HL-60, promyeloblast (acute myelocytic leukemia, AML), ECACC: 98070106 […] During the amplification step and the assays adherent cells were rinsed with DPBS (Dulbecco's Phosphate Buffered Saline, Sigma D1283) three times and afterward treated for 5 minutes with trypsin ([…]) (Gibco-BRL, 15400054) in solution of DPBS at 37° C., and, once detached, transferred in the culturing medium. No-adherent cells were centrifuged and transferred in the culturing medium. Cells were counted in a Neubauer chamber after labelling with Tripan-Blue. […] Cells were seeded at a density of 10000 cells/well in 100 μl of medium in 96 well plates. […] Controls are the untreated cells. Each experiment was performed in triplicate. Cells were incubated with the compounds at the indicated concentrations during 24-72 h in incubator under CO2 atmosphere at 37° C. […] Stock solution of MTT (475989 Calbiochem) was 5 mg/ml in PBS. 1×.10 μl/well of MTT solution were added and the plate was incubated for 3-4 hr. […] Plates were incubated for 16 h at room temperature under orbital shaking. Absorbance at 570 nm was finally measured. […] The dose/response curve was fitted through the sigmoidal equation dose-response (variable slope) and the IC50 values were calculated as follow: Y=Bottom+(Top−Bottom)/(1+10^{[(LogIC50−X)*HillSlope]},

[2] = test system: MCF-7, epithelial (breast cancer)
Protocol: as §1, with “MCF-7, epithelial (breast cancer),” for “HL-60, promyeloblast (acute myelocytic leukemia, AML),”, “86012803” for “98070106”

[3] = test system: NCI-H128, epithelial (small cell lung cancer); assay: MTT viability assay, NCI-H128
Protocol: as §1, with “NCI-[…], epithelial (small cell lung cancer), ATCC: HTB-120TM” for “HL-60, promyeloblast (acute myelocytic leukemia, AML), ECACC: 98070106”, “10,000” for “10000”, “Y=Bottom+(Top−Bottom)/(1+10^{[(LogIC50−X)*HillSlope]},” left out

[4] = HL-60, MTT, incubation 24-72 h, Table 3, read-out: IC50 values
[5] = HL-60, same protocol as Example 2, Table 6, read-out: Compound (IC50)
[6] = MCF7, same protocol as Example 2, Table 6, read-out: Compound (IC50)

| IC50 [1] | IC50 [2] | Compound | IC50 [1, 5] | also measured |
| --- | --- | --- | --- | --- |
|  |  | CCc1ccc(/C=C2/SC(=S)NC2=O)cc1 [10058-F4, reference compound] |  | IC50 [1, 4]: 54 ± 2 µM; IC50 ([2]; MCF7, MTT, incubation 24-72 h, Table 3, read-out: IC50 values): ~52 µM |
|  |  | CC[C@H](C)[C@H](NC(=O)[C@H](Cc1ccc(O)cc1)NC(=O)[C@H](C)NC(=O)C1CSCCCCCCCCSCC(NC(=O)[C@H](CCCCN)NC(=O)[C@@H]2CCCN2C(=O)[C@H](C)N)C(=O)N[C@@H](C(C)C)C(=O)N[C@@H]([C@@H](C)CC)C(=O)N[C@@H](CC(C)C)C(=O)N[C@@H](CCCCN)C(=O)N[C@@H](CCCCN)C(=O)N[C@@H](C)C(=O)N1)C(=O)N[C@@H](CC(C)C)C(=O)N[C@@H](CO)C(=O)O (stereo partly shown) [IDP-P1708160] (H-APK[ξC]VILKKA[ξC]AYILS-OH; linker 4-11 via Octanediyl(1,8); N-terminus and C-terminus assumed) |  | IC50 [3]: 16 ± 1 µM |
|  |  | CC[C@H](C)[C@H](NC(=O)[C@H](Cc1ccc(O)cc1)NC(=O)[C@H](C)NC(=O)[C@@H]1CSCc2ccc(cc2)-c2ccc(cc2)CSC[C@H](NC(=O)[C@H](CCCCN)NC(=O)[C@@H]2CCCN2C(=O)[C@H](C)N)C(=O)N[C@@H](C(C)C)C(=O)N[C@@H]([C@@H](C)CC)C(=O)N[C@@H](CC(C)C)C(=O)N[C@@H](CCCCN)C(=O)N[C@@H](CCCCN)C(=O)N[C@@H](C)C(=O)N1)C(=O)N[C@@H](CC(C)C)C(=O)N[C@@H](CO)C(=O)O [IDP-P1708161] (H-APKCVILKKACAYILS-OH; linker 4-11 via Biphenyl(4,4'-CH2)2; N-terminus and C-terminus assumed) |  | IC50 [3]: 14 ± 1 µM |
| > 100 µM | > 100 µM | CC[C@H](C)[C@H](NC(=O)[C@@H](NC(=O)[C@@H](NC(=O)[C@H](CCCCN)NC(=O)[C@@H]1CCCN1C(=O)[C@H](C)N)C(C)C)C(C)C)C(=O)NC1(C)CCCCCCC=CCCCC(C)(C(=O)N[C@@H](CC(C)C)C(=O)N[C@@H](CO)C(=O)O)NC(=O)[C@H](Cc2ccc(O)cc2)NC(=O)[C@H](C)NC(=O)[C@H]([C@@H](C)O)NC(=O)[C@H](C)NC(=O)[C@H](CCCCN)NC(=O)[C@H](CCCCN)NC1=O (stereo partly shown) [IDP-S17, APKVVIXKKATAYXLS] (H-APKVVI[X1]KKATAY[ξαMeNle(6-ylidene)]LS-OH; staple 7-14; N-terminus and C-terminus assumed) |  |  |
| > 100 µM | > 100 µM | CC[C@H](C)[C@@H]1NC(=O)[C@H](Cc2ccc(O)cc2)NC(=O)[C@H](C)NC(=O)[C@H]([C@@H](C)O)NC(=O)[C@H](C)NC(=O)[C@H](CCCCN)NC(=O)C(C)(NC(=O)[C@H](CC(C)C)NC(=O)[C@@H](NC(=O)[C@@H](NC(=O)[C@@H](NC(=O)[C@H](CCCCN)NC(=O)[C@@H]2CCCN2C(=O)[C@H](C)N)C(C)C)C(C)C)[C@@H](C)CC)CCCCCCC=CCCCC(C)(C(=O)N[C@@H](CO)C(=O)O)NC1=O (stereo partly shown) [IDP-S18, APKVVILXKATAYIXS] (H-APKVVIL[X1]KATAYI[ξαMeNle(6-ylidene)]S-OH; staple 8-15; N-terminus and C-terminus assumed) |  |  |
|  |  | CC[C@H](C)[C@H](NC(=O)[C@H](Cc1ccc(O)cc1)NC(=O)[C@H](C)NC(=O)[C@@H](NC(=O)[C@H](C)NC(=O)C1(C)CCCC=CCCCCCCC(C)(NC(=O)[C@H](C)N)C(=O)N[C@@H](CCCCN)C(=O)N[C@@H](C(C)C)C(=O)N[C@@H](C(C)C)C(=O)N[C@@H]([C@@H](C)CC)C(=O)N[C@@H](CC(C)C)C(=O)N[C@@H](CCCCN)C(=O)N1)[C@@H](C)O)C(=O)N[C@@H](CC(C)C)C(=O)N[C@@H](CO)C(=O)O (stereo partly shown) [IDP-S19, AXKVVILKXATAYILS] (H-A[X1]KVVILK[ξαMeNle(6-ylidene)]ATAYILS-OH; staple 2-9) | > 100 µM | IC50 [2, 6]: > 100 µM |
|  |  | CC[C@H](C)[C@H](NC(=O)[C@H](Cc1ccc(O)cc1)NC(=O)C1(C)CCCC=CCCCCCCC(C)(NC(=O)[C@@H](NC(=O)[C@H](CCCCN)NC(=O)[C@@H]2CCCN2C(=O)[C@H](C)N)C(C)C)C(=O)N[C@@H]([C@@H](C)CC)C(=O)N[C@@H](CC(C)C)C(=O)N[C@@H](CCCCN)C(=O)N[C@@H](CCCCN)C(=O)N[C@@H](C)C(=O)N[C@@H]([C@@H](C)O)C(=O)N1)C(=O)N[C@@H](CC(C)C)C(=O)N[C@@H](CO)C(=O)O (stereo partly shown) [IDP-S21, APKVXILKKATXYILS] (H-APKV[X1]ILKKAT[ξαMeNle(6-ylidene)]YILS-OH; staple 5-12) | > 100 µM | IC50 [2, 6]: > 100 µM |
| > 100 µM | > 100 µM | CC[C@H](C)[C@H](NC(=O)C1(C)CCCC=CCCCCCCC(C)(NC(=O)[C@@H](NC(=O)[C@@H](NC(=O)[C@H](CCCCN)NC(=O)[C@@H]2CCCN2C(=O)[C@H](C)N)C(C)C)C(C)C)C(=O)N[C@@H](CC(C)C)C(=O)N[C@@H](CCCCN)C(=O)N[C@@H](CCCCN)C(=O)N[C@@H](C)C(=O)N[C@@H]([C@@H](C)O)C(=O)N[C@@H](C)C(=O)N1)C(=O)N[C@@H](CC(C)C)C(=O)N[C@@H](CO)C(=O)O (stereo partly shown) [IDP-S22, APKVVXLKKATAXILS] (H-APKVV[X1]LKKATA[ξαMeNle(6-ylidene)]ILS-OH; staple 6-13; N-terminus and C-terminus assumed) |  |  |
|  |  | CC[C@H](C)[C@@H]1NC(=O)[C@H](Cc2ccc(O)cc2)NC(=O)[C@H](C)NC(=O)[C@H]([C@@H](C)O)NC(=O)[C@H](C)NC(=O)C(C)(NC(=O)[C@H](CCCCN)NC(=O)[C@H](CC(C)C)NC(=O)[C@@H](NC(=O)[C@@H](NC(=O)[C@@H](NC(=O)[C@H](CCCCN)NC(=O)[C@@H]2CCCN2C(=O)[C@H](C)N)C(C)C)C(C)C)[C@@H](C)CC)CCCCCCC=CCCCC(C)(C(=O)N[C@H](C(=O)O)C(C)C)NC(=O)[C@H](CC(C)C)NC1=O (stereo partly shown) [IDP-S23, APKVVILKXATAYILXV] (H-APKVVILK[X1]ATAYIL[ξαMeNle(6-ylidene)]V-OH; staple 9-16) | > 100 µM | IC50 [2, 6]: > 100 µM |
|  |  | CC[C@H](C)[C@H](NC(=O)[C@H](Cc1ccc(O)cc1)NC(=O)[C@H](C)NC(=O)C1(C)CCCC=CCCCCCCC(C)(NC(=O)[C@H](CCCCN)NC(=O)[C@@H]2CCCN2C(=O)[C@H](C)N)C(=O)N[C@@H](C(C)C)C(=O)N[C@@H]([C@@H](C)CC)C(=O)N[C@@H](CC(C)C)C(=O)N[C@@H](CCCCN)C(=O)N[C@@H](CCCCN)C(=O)N[C@@H](C)C(=O)N1)C(=O)N[C@@H](CC(C)C)C(=O)N[C@@H](CO)C(=O)O (stereo partly shown) [S09, APKXVILKKAXAYILS—OH] (H-APK[X1]VILKKA[ξαMeNle(6-ylidene)]AYILS-OH; staple 4-11; N-terminus assumed) | 3.5 ± 0.2 µM | IC50 [1, 4]: 3.5 ± 0.2 µM; IC50 ([3]; NCI-H128, MTT, 24-72 h, Table 12, read-out: IC50 values): 3 ± 1 µM |
| > 100 µM | > 100 µM | RQIKIWFQNRRMKWKKNELKRAFAALRDQI [Int-HI-S6A-F8, reference compound] |  |  |

| Compound | IC50 [1] | IC50 [2] | IC50 [1, 5] | also measured |
| --- | --- | --- | --- | --- |
| CC[C@H](C)[C@H](NC(=O)[C@H](Cc1ccc(O)cc1)NC(=O)[C@H](C)NC(=O)C1(C)CCCC=CCCCCCCC(C)(NC(=O)[C@H](CCCCN)NC(=O)[C@@H]2CCCN2C(=O)[C@H](C)N)C(=O)N[C@@H](C(C)C)C(=O)N[C@@H]([C@@H](C)CC)C(=O)N[C@@H](Cc2ccccc2)C(=O)N[C@@H](CCCCN)C(=O)N[C@@H](CCCCN)C(=O)N[C@@H](C)C(=O)N1)C(=O)N[C@@H](CC(C)C)C(=O)N[C@@H](CO)C(=O)O (stereo partly shown) [S14, APKXVIFKKAXAYILS—OH] (H-APK[X1]VIFKKA[ξαMeNle(6-ylidene)]AYILS-OH; staple 4-11; N-terminus assumed) | 7.8 ± 0.4 µM |  |  |  |
